Test results published in US9808466B2, “Macrocyclic compounds as protein kinase inhibitors” (Fundación Centro Nacional de Investigaciones Oncologicas …, priority 2011, dated 2017).
Where two headings read alike, the source gives them in different places.

What was measured:
mTOR = target: T1, mTOR (Homo sapiens, UniProt P42345); assay: mTOR assay (LanthaScreen kinase activity assay); format: biochemical
T1 construct: purchased Invitrogen PV4754
Procedure: The enzymatic mTOR activity was measured using a LanthaScreen™ kinase activity assay (Invitrogen). The enzyme was purchased from Invitrogen (PV4754), as well as the GFP-labeled substrate (4EBP1-GFP; PV4759) and the Tb-anti-p4EBP1(pThr46) antibody (PV4757). The assay was performed in 50 mM HEPES buffer, pH 7.5, containing 1.5 mM MnCl2, 10 mM MgCl2, 1 mM EGTA, 2.5 mM DTT and 0.01% Tween-20. The concentration of the assay components were the following: 0.24 nM mTOR kinase, 400 nM 4EBP1-GFP, […] and serial dilutions of the compound (inhibitor) to be evaluated. After 1 h incubation at room temperature, 20 mM EDTA was used to stop the reaction and terbium-labeled antibody (4 nM) added to detect phosphorylated product. The antibody associates with the phosphorylated product resulting in an increased TR-FRET value. The TR-FRET value (a dimensionless number) was calculated as the ratio of the acceptor signal (GFP, emission at 520 nm) to the donor signal (terbium, emission at 495 nm). Values were plotted against the inhibitor concentration and fitted to a sigmoid dose-response curve using GraphPad software.

PIM-1 = target: T2, PIM-1 (Homo sapiens, UniProt P11309); assay: PIM-1 biochemical assay (ADP Hunter)
T2 construct: histidine tag (C); made in house
T2 sequence (P11309 whole entry): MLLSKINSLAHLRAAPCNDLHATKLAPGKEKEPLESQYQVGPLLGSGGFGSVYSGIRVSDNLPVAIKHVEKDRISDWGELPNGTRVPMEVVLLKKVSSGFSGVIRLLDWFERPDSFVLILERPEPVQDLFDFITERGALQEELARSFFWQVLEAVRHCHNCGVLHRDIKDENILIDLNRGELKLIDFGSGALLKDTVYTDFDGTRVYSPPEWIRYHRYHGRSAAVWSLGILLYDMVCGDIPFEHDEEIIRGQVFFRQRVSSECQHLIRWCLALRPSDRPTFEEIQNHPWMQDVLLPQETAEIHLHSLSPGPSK
Source text: The biochemical assay to measure PIM-1 activity relies on the ADP Hunter assay kit (DiscoveRx Corp., Cat. #90-0077), that determines the amount of ADP as direct product of the kinase enzyme activity.
The enzyme has been expressed and purified in-house as a recombinant human protein with a C-terminal histidine tag. The protein is active and stable.
Assay conditions were as indicated by the kit manufacturers with the following adaptations for the kinase activity step: • Kinase assay buffer and assay volume stay as recommended (15 mM HEPES, pH 7.4, 20 mM NaCl, 1 mM EGTA, 0.02% Tween 20, 10 mM MgCl2 and 0.1 mg/ml bovine γ-globulins/75 μl assay volume) • Incubation time and temperature: 60 min at 30° C. • PIM-1 concentration: 50 pg/μl • ATP concentration: 100 μM • PIM-1 substrate peptide: PIMtide ([…]) (SEQIDNO. 1) • Peptide concentration: 60 μM • Positive control for kinase activity inhibition: 1-10 μM Staurosporine • DMSO concentration have to stay below 2% during the kinase reaction
Assays were performed in either 96 or 384-well plates. The final outcome of the coupled reactions provided by the kit is the release of the fluorescent product Resorufin and has been measured with a multilabel HTS counter VICTOR V (PerkinElmer) using an excitation filter at 544 nm and an emission filter at 580 nm.

PI3K (p110α/p85α) = target: T3, PI3K (p110α/p85α) (Homo sapiens, UniProt P42336); assay: PI3K activity assay (ADP Hunter Plus); format: biochemical
T3 construct: purchased Carna Biosciences 07CBS-0402A
T3 sequence (P42336 whole entry): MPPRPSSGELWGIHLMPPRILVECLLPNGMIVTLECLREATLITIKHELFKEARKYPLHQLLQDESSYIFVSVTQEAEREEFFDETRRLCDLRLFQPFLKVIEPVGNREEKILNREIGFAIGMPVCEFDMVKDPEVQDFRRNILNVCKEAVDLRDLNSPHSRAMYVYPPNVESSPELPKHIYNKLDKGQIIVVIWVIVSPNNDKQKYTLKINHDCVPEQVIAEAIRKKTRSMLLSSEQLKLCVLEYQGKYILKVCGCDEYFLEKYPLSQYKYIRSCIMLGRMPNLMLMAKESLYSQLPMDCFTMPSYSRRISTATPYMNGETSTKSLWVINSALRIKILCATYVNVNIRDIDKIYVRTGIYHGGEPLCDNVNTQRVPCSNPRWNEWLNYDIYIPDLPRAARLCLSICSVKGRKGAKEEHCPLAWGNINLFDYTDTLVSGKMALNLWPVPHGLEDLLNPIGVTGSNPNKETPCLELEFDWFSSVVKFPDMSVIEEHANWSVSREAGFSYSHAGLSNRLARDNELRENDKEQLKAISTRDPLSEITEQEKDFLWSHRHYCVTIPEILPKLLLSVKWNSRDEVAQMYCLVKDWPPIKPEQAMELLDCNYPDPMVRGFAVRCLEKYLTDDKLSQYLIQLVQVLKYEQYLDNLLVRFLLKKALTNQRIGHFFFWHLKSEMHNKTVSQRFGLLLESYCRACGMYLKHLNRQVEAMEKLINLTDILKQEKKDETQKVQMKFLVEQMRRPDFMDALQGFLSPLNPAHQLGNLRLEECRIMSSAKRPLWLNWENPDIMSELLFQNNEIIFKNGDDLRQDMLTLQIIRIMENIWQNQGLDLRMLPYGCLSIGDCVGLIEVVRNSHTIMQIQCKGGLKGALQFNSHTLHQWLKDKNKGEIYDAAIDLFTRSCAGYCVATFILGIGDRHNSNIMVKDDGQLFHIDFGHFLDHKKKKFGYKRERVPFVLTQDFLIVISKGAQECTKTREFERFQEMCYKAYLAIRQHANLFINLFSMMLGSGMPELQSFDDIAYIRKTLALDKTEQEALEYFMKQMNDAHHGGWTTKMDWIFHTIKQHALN
T3 sequence (P27986 whole entry partner): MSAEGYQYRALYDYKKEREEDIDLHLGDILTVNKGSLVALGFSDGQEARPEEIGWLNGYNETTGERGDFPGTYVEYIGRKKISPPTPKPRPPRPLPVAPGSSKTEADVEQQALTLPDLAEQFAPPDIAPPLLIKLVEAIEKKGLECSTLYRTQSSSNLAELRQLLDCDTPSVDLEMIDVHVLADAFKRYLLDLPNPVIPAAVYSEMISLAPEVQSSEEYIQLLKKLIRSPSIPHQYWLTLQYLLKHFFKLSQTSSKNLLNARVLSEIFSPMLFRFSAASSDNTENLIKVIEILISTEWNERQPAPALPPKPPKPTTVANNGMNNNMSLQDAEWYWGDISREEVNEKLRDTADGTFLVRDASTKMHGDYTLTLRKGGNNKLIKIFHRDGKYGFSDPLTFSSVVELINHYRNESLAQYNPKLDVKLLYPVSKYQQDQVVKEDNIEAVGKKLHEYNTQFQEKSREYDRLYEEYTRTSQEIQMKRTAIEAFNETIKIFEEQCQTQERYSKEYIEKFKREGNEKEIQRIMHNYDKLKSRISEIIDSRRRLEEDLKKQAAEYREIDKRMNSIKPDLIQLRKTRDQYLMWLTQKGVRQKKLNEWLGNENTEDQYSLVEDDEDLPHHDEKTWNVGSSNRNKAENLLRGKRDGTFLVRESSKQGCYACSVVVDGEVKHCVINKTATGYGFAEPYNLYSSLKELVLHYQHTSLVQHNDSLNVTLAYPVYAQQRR
Procedure: The kinase activity was measured by using the commercial ADP Hunter™ Plus assay available from DiscoveRx (#33-016), which is a homogeneous assay to measure the accumulation of ADP, a universal product of kinase activity. […] Reaction was carried out for 1 hour at 25° C. Reagent A and B were sequentially added to the wells and plates were incubated for 30 min at 37° C. Fluorescence counts were read in a Victor instrument (Perkin Elmer) with the recommended settings (544 and 580 nm as excitation and emission wavelengths, respectively). Values were normalized against the control activity included for each enzyme (i.e., 100% PI3 kinase activity, without compound). These values were plotted against the inhibitor concentration and were fit to a sigmoid dose-response curve by using the Graphad software.

[1] = read-out: mTOR activity, IC50 (semi-quantitative class)
[2] = read-out: mTOR actual IC50 (in parentheses)
[3] = PIM1, read-out: PIM-1 activity, IC50 (semi-quantitative class)
[4] = read-out: PI3K alpha activity, IC50 (semi-quantitative class)
[5] = read-out: PI3K alpha actual IC50 (in parentheses)
[6] = read-out: mTOR activity (semi-quantitative IC50)
[7] = read-out: PIM-1 activity (semi-quantitative IC50)
[8] = read-out: PI3K alpha activity (semi-quantitative IC50)
[9] = PIM1, read-out: PIM-1 actual IC50 (in parentheses)
[10] = read-out: PIM-1 IC50 (in parentheses)
[11] = read-out: PI3K alpha IC50 (in parentheses)

T1 sequence (P42345 1360-2549 limits assumed): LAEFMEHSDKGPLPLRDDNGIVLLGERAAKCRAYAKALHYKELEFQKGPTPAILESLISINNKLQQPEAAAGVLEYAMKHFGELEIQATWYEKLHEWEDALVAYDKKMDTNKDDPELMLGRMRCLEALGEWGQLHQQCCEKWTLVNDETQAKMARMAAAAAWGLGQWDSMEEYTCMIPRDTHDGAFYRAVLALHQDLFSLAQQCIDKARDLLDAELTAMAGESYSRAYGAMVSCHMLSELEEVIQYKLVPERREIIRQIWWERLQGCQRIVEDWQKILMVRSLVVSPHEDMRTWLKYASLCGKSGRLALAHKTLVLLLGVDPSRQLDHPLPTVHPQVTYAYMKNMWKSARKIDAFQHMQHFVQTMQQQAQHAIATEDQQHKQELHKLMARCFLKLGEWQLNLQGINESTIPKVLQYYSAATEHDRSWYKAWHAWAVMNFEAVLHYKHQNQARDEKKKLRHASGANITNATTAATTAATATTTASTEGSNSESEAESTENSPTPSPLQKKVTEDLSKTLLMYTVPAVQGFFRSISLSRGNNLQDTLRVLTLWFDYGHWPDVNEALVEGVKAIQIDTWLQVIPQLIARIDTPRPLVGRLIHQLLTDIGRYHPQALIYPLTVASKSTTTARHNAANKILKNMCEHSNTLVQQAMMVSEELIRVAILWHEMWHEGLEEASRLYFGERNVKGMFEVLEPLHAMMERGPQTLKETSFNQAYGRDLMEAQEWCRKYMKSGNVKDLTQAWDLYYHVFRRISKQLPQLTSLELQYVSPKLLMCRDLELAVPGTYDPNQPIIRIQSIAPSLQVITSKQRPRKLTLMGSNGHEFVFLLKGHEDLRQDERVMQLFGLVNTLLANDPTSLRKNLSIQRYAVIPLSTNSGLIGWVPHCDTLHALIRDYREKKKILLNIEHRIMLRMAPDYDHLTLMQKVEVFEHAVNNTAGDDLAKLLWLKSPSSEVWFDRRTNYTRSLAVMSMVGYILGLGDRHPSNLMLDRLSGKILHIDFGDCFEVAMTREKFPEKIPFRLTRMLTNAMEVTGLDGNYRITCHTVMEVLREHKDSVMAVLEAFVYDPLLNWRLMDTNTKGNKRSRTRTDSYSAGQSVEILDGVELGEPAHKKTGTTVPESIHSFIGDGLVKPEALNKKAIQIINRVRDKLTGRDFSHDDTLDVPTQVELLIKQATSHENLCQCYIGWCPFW

Row | Compound | IC50 (mTOR; [1]) [nM] | IC50 (PIM-1; [3]) [nM] | IC50 (PI3K (p110α/p85α); [4]) [nM] | IC50 (PI3K (p110α/p85α); [5]) [nM] | other results
1 | COc1ncc2cc1NS(=O)(=O)c1cccc(c1)C(=O)N(C)CC1CCN(CC1)c1ccnc3ccc-2cc13 [compound 24] | < 100 | > 1000 | < 100 | 3 | IC50 (mTOR; [2]): 4 nM
2 | COc1ncc2cc1NS(=O)(=O)c1cccc(c1)C(=O)NCCn1cc(cn1)-c1nc(C(C)C)nc3c1SC2=C3 [compound 61] | > 1000 | > 1000 | > 1000 |  | 
3 | COc1ncc2cc1NS(=O)(=O)c1cccc(c1)C(=O)NCc1ccncc1-c1ncnc3c1SC2=C3 [compound 89] |  |  |  |  | IC50 (mTOR; [6]): > 1000 nM; IC50 (PIM-1; [7]): > 1000 nM; IC50 (PI3K (p110α/p85α); [8]): > 1000 nM
4 | O=C1NCc2cncc(c2)-c2ccnc3ccc(cc23)-c2cncc(c2)NS(=O)(=O)c2cccc1c2 [compound 49] | 100 to 1000 | > 1000 | < 100 | 68 | 
5 | COc1ncc2cc1NS(=O)(=O)c1cccc(c1)C(=O)NCCN1CC=C(CC1)c1cnc3ccc-2cn13 [compound 40] | < 100 | > 1000 | < 100 | 3 | IC50 (mTOR; [2]): 36 nM
6 | COc1ncc2cc1NS(=O)(=O)c1cccc(c1)C(=O)NCC1CCN(CC1)c1ncnc3ccc-2cc13 [compound 32] | < 100 | > 1000 | < 100 | 2 | IC50 (mTOR; [2]): 5 nM
7 | COc1ncc2cc1NS(=O)(=O)c1cccc(c1)C(=O)NCc1cncc(c1)-c1cnc3ccc-2nn13 [compound 12] | < 100 | > 1000 | < 100 | 0.4 | IC50 (mTOR; [2]): 5 nM
8 | COc1ncc2cc1NS(=O)(=O)c1cccc(c1)C(=O)NCc1cncc(c1)-c1ncnc3ccc-2cc13 [compound 41] | < 100 | > 1000 | < 100 | 3 | IC50 (mTOR; [2]): 16 nM
9 | O=C1NCc2cc(ccn2)-c2ncnc3c2SC(=C3)c2cncc(c2)NS(=O)(=O)c2cccc1c2 [compound 43] | > 1000 | < 100 | < 100 | 44 | IC50 (PIM-1; [9]): 41 nM
10 | COc1ncc2cc1NS(=O)(=O)c1cccc(c1)C(=O)NC[C@H]1CCCN(C1)c1ncnc3c1SC2=C3 [compound 83] | > 1000 | 100 to 1000 | > 1000 |  | 
11 | COc1ncc2cc1NS(=O)(=O)c1cccc(c1)C(=O)NCc1cncc(c1)-c1ccnc3c1SC2=C3 [compound 62] | > 1000 | < 100 | 100 to 1000 |  | IC50 (PIM-1; [9]): 31 nM
12 | COc1ncc2cc1NS(=O)(=O)c1cccc(c1)C(=O)NCc1cccc(c1)-c1ncnc3c1SC2=C3 [compound 28] | > 1000 | 100 to 1000 | 100 to 1000 |  | 
13 | COc1ncc2cc1NS(=O)(=O)c1cccc(c1)C(=O)NCc1csc(c1)-c1ncnc3c1SC2=C3 [compound 77] | > 1000 | < 100 | 100 to 1000 |  | IC50 (PIM-1; [9]): 17 nM
14 | COc1ncc2cc1N(C)S(=O)(=O)c1cccc(c1)C(=O)NCc1cncc(c1)-c1ncnc3c1SC2=C3 [compound 46] | > 1000 | > 1000 | > 1000 |  | 
15 | COc1ncc2cc1NS(=O)(=O)c1cccc(c1)C(=O)NCc1cncc(c1)-c1ccnc3ccc-2cc13 [compound 1] | < 100 | > 1000 | < 100 | 2 | IC50 (mTOR; [2]): 64 nM
16 | O=C1NCc2cncc(c2)-c2ccnc3ccc(cc23)-c2cnc(O)c(c2)NS(=O)(=O)c2cccc1c2 [compound 2] | > 1000 | > 1000 | 100 to 1000 |  | 
17 | COc1ncc2cc1NS(=O)(=O)c1cccc(c1)C(=O)NCc1cncc(c1)-c1cnc3sc-2nn13 [compound 8] | > 1000 | > 1000 | < 100 | 7 | 

Row | Compound | IC50 (mTOR; [1]) [nM] | IC50 (PIM-1; [3]) [nM] | IC50 (PI3K (p110α/p85α); [4]) [nM] | IC50 (PI3K (p110α/p85α); [5]) [nM] | other results
18 | COc1ncc2cc1NS(=O)(=O)c1cccc(c1)C(=O)NCCCNc1ncnc3c1SC2=C3 [compound 70] | > 1000 | 100 to 1000 | > 1000 |  | 
19 | O=C1NCc2cncc(c2)-c2ncnc3c2SC(=C3)c2cnc(Cl)c(c2)NS(=O)(=O)c2cccc1c2 [compound 58] | > 1000 | 100 to 1000 | < 100 | 3.6 | 
20 | COc1ncc2cc1NS(=O)(=O)c1cccc(c1)C(=O)NCc1cncc(c1)-c1ncnc3sc-2cc13 [compound 21] | > 1000 | 100 to 1000 | < 100 | 85 | 
21 | COc1ncc2cc1NS(=O)(=O)c1cccc(c1)C(=O)NCc1cc(ccn1)-c1ncnc3c1SC2=C3 [compound 42] | > 1000 | 100 to 1000 | 100 to 1000 |  | 
22 | O=C1NCc2cncc(c2)-c2cnc3sc(nn23)-c2cnc(O)c(c2)NS(=O)(=O)c2cccc1c2 [compound 9] | > 1000 | 100 to 1000 | 100 to 1000 |  | 
23 | COc1ncc2cc1NS(=O)(=O)c1cccc(c1)C(=O)NCc1cccc(c1)-c1cnc3ccc-2nn13 [compound 13] | < 100 | > 1000 | < 100 | 0.4 | IC50 (mTOR; [2]): 10 nM
24 | CC(C)Oc1ncc2cc1NS(=O)(=O)c1cccc(c1)C(=O)NCc1cncc(c1)-c1ncnc3c1SC2=C3 [compound 50] | > 1000 | > 1000 | > 1000 |  | 
25 | COc1ncc2cc1NS(=O)(=O)c1cccc(c1)C(=O)NCCn1cc(cn1)-c1cnn3ccc-2nc13 [compound 26] | < 100 | > 1000 | < 100 | 4 | IC50 (mTOR; [2]): 40 nM
26 | COc1ncc2cc1NS(=O)(=O)c1cccc(c1)C(=O)NCc1cccc(c1)-c1ncnc3sc-2cc13 [compound 37] | > 1000 | > 1000 | < 100 | 20 | 
27 | COc1ncc2cc1NS(=O)(=O)c1cccc(c1)C(=O)NCC1CCN(CC1)c1ccnc3ccc-2cc13 [compound 6] | < 100 | > 1000 | < 100 | 11 | IC50 (mTOR; [2]): 72 nM
28 | COc1ncc2cc1NS(=O)(=O)c1ccc(F)c(c1)C(=O)NCC1=CC=C(S1)c1ncnc3c1SC2=C3 [compound 82] | > 1000 | < 100 | < 100 | 57 | IC50 (PIM-1; [9]): 13 nM
29 | COc1ccc2cc1C(=O)NCC1=CC=C(S1)c1ncnc3c1SC(=C3C)c1cnc(OC)c(c1)NS2(=O)=O [compound 100] |  |  |  |  | IC50 (mTOR; [6]): > 1000 nM; IC50 (PIM-1; [10]): 31 nM; IC50 (PIM-1; [7]): < 100 nM; IC50 (PI3K (p110α/p85α); [11]): 3.3 nM; IC50 (PI3K (p110α/p85α); [8]): < 100 nM
30 | COc1ncc2cc1NS(=O)(=O)c1cccc(c1)C(=O)NCC1=CC=C(S1)c1ncnc3c1SC2=C3 [compound 55] | > 1000 | < 100 | 100 to 1000 |  | IC50 (PIM-1; [9]): 12 nM
31 | O=C1NCc2cncc(c2)-c2ncnc3c2SC(=C3)c2cnc(O)c(c2)NS(=O)(=O)c2cccc1c2 [compound 45] | > 1000 | 100 to 1000 | > 1000 |  | 
32 | COc1ncc2cc1NS(=O)(=O)c1ccc(Cl)c(c1)C(=O)NCC1=CC=C(S1)c1ccnc3c1SC2=C3C [compound 102] |  |  |  |  | IC50 (mTOR; read-out: mTOR IC50 (in parentheses)): 28 nM; IC50 (mTOR; [6]): < 100 nM; IC50 (PIM-1; [10]): 9.5 nM; IC50 (PIM-1; [7]): < 100 nM; IC50 (PI3K (p110α/p85α); [11]): 0.1 nM; IC50 (PI3K (p110α/p85α); [8]): < 100 nM
33 | COc1ncc2cc1NS(=O)(=O)c1ccc(Cl)c(c1)C(=O)NCC1=CC=C(S1)c1ncnc3c1SC2=C3 [compound 98] |  |  |  |  | IC50 (mTOR; [6]): > 1000 nM; IC50 (PIM-1; [10]): 13 nM; IC50 (PIM-1; [7]): < 100 nM; IC50 (PI3K (p110α/p85α); [11]): 37 nM; IC50 (PI3K (p110α/p85α); [8]): < 100 nM
